Data from patent publication US20010051646A1, “Method for the improvement of islet signaling in diabetes mellitus and for its prevention” (priority 2000, published 2001).
“And” between values parts separate entries of the source, which are not always exact repeats. Equal entries are not always repeated. “Also recorded” adds a separate entry of the source.

Columns and labels:
Format in all cases: in vivo, rat
Male Zucker fa/fa rats [1] = test: OGTT after 21 days treatment: blood glucose and plasma insulin
Method: The parameters monitored were morning blood glucose and plasma insulin levels. […] An OGTT was performed finally on day 21 to monitor blood glucose and plasma insulin kinetics to assess changes in glucose tolerance. Glibenclamide (DAB 1996; R011150/33372) was donated by Berlin-Chemie (Berlin, Germany). Male Zucker (fa/fa) rats of the body weight class of 300 g were purchased from Charles River (Sulzfeld, Germany). Repeated Dosing: 30 male non-diabetic Wistar and 30 male diabetic Zucker rats were randomized to RP (Reference Product: glibenclamide)-, TP- (jest Product: […] Thereafter, the non-diabetic Wistar rats were treated orally once daily with RP (5 mg/kg b.w.) or TP (21.61 mg/kg b.w.) and the diabetic Zucker rats were treated orally once daily with RP (1 mg/kg b.w.) or TP (21.61 mg/kg b.w.) for 21 days at 05.00 p.m. (before regular food intake in the dark phase). The controls were given 1% cellulose solution orally (5 ml/kg). […] The oral drug therapy was continued for one week. […] OGTT: A final OGTT was performed on day 21 with blood sampling from the tail vein. […] The latter were immediately centrifuged and the plasma fractions were stored at −20 ° C. for insulin analysis. Blood glucose: Glucose levels were measured using the glucose oxidase procedure (Super G Glukosemeβgerät; Dr. Müller Gerätebau, Freital, Germany). Plasma insulin: Insulin concentrations were assayed by the antibody RIA method (LINCO Research, Inc. St. Charles, Mo., USA).

Male Zucker fa/fa rats [2] = test: Repeated once-daily oral dosing: morning blood glucose and plasma insulin
Method: The parameters monitored were morning blood glucose and plasma insulin levels. In a day-night profile, glycemia and insulinaemia were monitored from day 16 to day 17. An OGTT was performed finally on day 21 to monitor blood glucose and plasma insulin kinetics to assess changes in glucose tolerance. Glibenclamide (DAB 1996; R011150/33372) was donated by Berlin-Chemie (Berlin, Germany). Male Zucker (fa/fa) rats of the body weight class of 300 g were purchased from Charles River (Sulzfeld, Germany).
Housing Conditions: Animals were kept single-housed under conventional conditions with controlled temperature (22±2° C.) on a 12/12 hours light/dark cycle (light on at 06:00 a.m.). Standard pellets (ssniff®, Soest, Germany) and tap water acidified with HCl were allowed ad libitum.
Catheterization of Carotid Artery: After one week of adaptation carotid catheters were implanted in the rats under general anesthesia (injection of 0.25 ml/kg i.p. Rompun® [2%], Bayer, Germany) and 0.5 ml/kg i.p. Velonarkon® (Arzneimittelwerk Dresden, Germany). The animals were allowed to recover for one week. The catheter was flushed with heparin-saline (100 IU/ml) three times per week.
Thereafter, the non-diabetic Wistar rats were treated orally once daily with RP (5 mg/kg b.w.) or TP (21.61 mg/kg b.w.) and the diabetic Zucker rats were treated orally once daily with RP (1 mg/kg b.w.) or TP (21.61 mg/kg b.w.) for 21 days at 05.00 p.m. (before regular food intake in the dark phase). The controls were given 1% cellulose solution orally (5 ml/kg). Blood samples were taken every morning at 07.30 a.m. from tail veins for measurement of blood glucose and plasma insulin. The last blood samples of this part of the program were taken at 07.30 a. m. on the 15th day to measure blood glucose and plasma insulin. The oral drug therapy was continued for one week. Recording the day-night profile under the above therapy blood glucose (Δt=3 h) and plasma insulin (Δt=3-6 h) were monitored from day 16 (at 05.00 p.m. beginning) to day 17 (at 02.00 p.m. end).
Blood glucose: Glucose levels were measured using the glucose oxidase procedure (Super G Glukosemeβgerät; Dr. Müller Gerätebau, Freital, Germany).
Plasma insulin: Insulin concentrations were assayed by the antibody RIA method (LINCO Research, Inc. St. Charles, Mo., USA).

Male Zucker fa/fa rats [3] = test: Day-night profile of glycemia and insulinemia, day 16 to day 17 of treatment
Method: The parameters monitored were morning blood glucose and plasma insulin levels. […] An OGTT was performed finally on day 21 to monitor blood glucose and plasma insulin kinetics to assess changes in glucose tolerance. Glibenclamide (DAB 1996; R011150/33372) was donated by Berlin-Chemie (Berlin, Germany). Male Zucker (fa/fa) rats of the body weight class of 300 g were purchased from Charles River (Sulzfeld, Germany). […] Thereafter, the non-diabetic Wistar rats were treated orally once daily with RP (5 mg/kg b.w.) or TP (21.61 mg/kg b.w.) and the diabetic Zucker rats were treated orally once daily with RP (1 mg/kg b.w.) or TP (21.61 mg/kg b.w.) for 21 days at 05.00 p.m. (before regular food intake in the dark phase). The controls were given 1% cellulose solution orally (5 ml/kg). […] The oral drug therapy was continued for one week. […] Blood glucose: Glucose levels were measured using the glucose oxidase procedure (Super G Glukosemeβgerät; Dr. Müller Gerätebau, Freital, Germany). Plasma insulin: Insulin concentrations were assayed by the antibody RIA method (LINCO Research, Inc. St. Charles, Mo., USA).

In the case of “isoleucyl thiazolidine hemifumarate [P32/98]”, the “Glycemia at the last drug application” value (Male Zucker fa/fa rats [1]; 05.00 p.m., night before day 21) is reported as 5.75 ± 0.23 mmol/L, the “G-AUC in comparison to the placebo application” value (Male Zucker fa/fa rats [1]; day 21) is reported as “did not increase” and the “Mean blood glucose curve in the OGTT versus controls” value (Male Zucker fa/fa rats [1]; day 21) is reported as “not different from that of the controls”. For the same substance, the “Blood glucose during OGTT” value (Male Zucker fa/fa rats [1]; day 21, 50 min) was 14.54 ± 0.65 mmol/L, the “Blood glucose during OGTT” value (Male Zucker fa/fa rats [1]; day 21, 120 min) was 10.67 ± 0.62 mmol/L and the “Glycemia after overnight fasting (basal, before OGTT)” value (Male Zucker fa/fa rats [1]; day 21, morning (07.30 a. m.)) was 4.88 ± 0.13 mmol/L. For the same substance, the “Fasting plasma insulin at the beginning of the OGTT” value (Male Zucker fa/fa rats [1]; day 21, overnight fasting, listed as TP) was 9.3 ± 1.5 ng/mL and ~9 ng/mL, the “Plasma insulin after a glucose stimulus” value (Male Zucker fa/fa rats [1]; day 21 OGTT) was “remained mostly unchanged” and the “Glucose area under the curve (G-AUC0-120 min)” value (Male Zucker fa/fa rats [1]; day 21 OGTT, CO-group 823±41) was 895 ± 50 mmol·min/L. The “I-AUC0-120 min compared with the other groups” value (Male Zucker fa/fa rats [1]; day 21 OGTT, listed as TP) was “lower than in the CO- or RP-groups (NS); also recorded: slightly lower”, the Hyperinsulinemia (Male Zucker fa/fa rats [2]; given once daily) was “reduced” and the Morning blood glucose (Male Zucker fa/fa rats [2]; given once daily) was “normalized”. The “Time until morning blood glucose was reduced to a normal value” (Male Zucker fa/fa rats [2]; once daily oral) was at most 5 days, the “Plasma insulin during 14 days in comparison to the control animals” value (Male Zucker fa/fa rats [2]; rat, in vivo) was “slightly decrease insulin concentration” and the “Mean blood glucose, day-night profile” value (Male Zucker fa/fa rats [3]; 02.00 p.m. next day, RP 1 mg/kg, TP 21.61 mg/kg orally once daily) was 5.51 ± 0.19 mmol/L. For the same substance, the “Plasma insulin, day-night profile” value (Male Zucker fa/fa rats [3]; 02.00 p.m. the next day) was 24.3 ± 3.7 ng/mL, the “Plasma insulin, day-night profile” value (Male Zucker fa/fa rats [3]; 05.00 a.m. (maximum)) was 57.1 ± 8.6 ng/mL and the “Plasma insulin, day-night profile” value (Male Zucker fa/fa rats [3]; 05.00 p.m., RP 1 mg/kg, TP 21.61 mg/kg orally once daily) was “significantly lower than in the RP”. The “Mean blood glucose, day-night profile” value (Male Zucker fa/fa rats [3]; 08.00 a.m., TP 21.61 mg/kg orally once daily) was 5.64 ± 0.23 mmol/L, the “Plasma insulin, day-night profile” value (Male Zucker fa/fa rats [3]; 08.00 p.m.) was 41.9 ± 8.5 ng/mL and the “Mean blood glucose, day-night profile” value (Male Zucker fa/fa rats [3]; 11.00 a.m., RP 1 mg/kg, TP 21.61 mg/kg orally once daily) was 5.33 ± 0.14 mmol/L. The “Mean blood glucose, day-night profile” value (Male Zucker fa/fa rats [3]; 11.00 p.m., RP 1 mg/kg, TP 21.61 mg/kg orally once daily) was 8.34 ± 0.47 mmol/L, the “Increase of glycemia from 05.00 p.m. to 11.00 p.m.” value (Male Zucker fa/fa rats [3]; day 16) was “about 3 mmol/l” and the “Individual blood glucose values, range” value (Male Zucker fa/fa rats [3]; day 16, 05.00 p.m.) was 4.34 to 6.07 mmol/L. For the same substance, the “Mean blood glucose, day-night profile” value (Male Zucker fa/fa rats [3]; day 16, 05.00 p.m. before drug application, RP 1 mg/kg, TP 21.61 mg/kg orally once daily) was 5.25 ± 0.16 mmol/L, the “Blood glucose in the day-night profile” value (Male Zucker fa/fa rats [3]; given once daily) was under 8.3 mmol/L and the “Economization (saving) of insulin compared to the control” value (Male Zucker fa/fa rats [3]; obese Zucker rat, subchronic treatment) was 45%.
